Results from US4948783A, “Anticariogenic or antiperidontitic method” (Kabushiki Kaisya Advance Kaihatsu kenkyujo, priority 1985, dated 1990).
Values after ≈ are worked out from the molar mass of the structure shown. Where two headings read alike, the source gives them in different places.

Assays:
[1] = system: S. mutans; assay: Antibacterial activity (MIC) against S. mutans; type: cell-based, Streptococcus mutans (isolated from a human oral cavity); settings: Streptococcus mutans
Experimental: (§1) A sample of vitamin L2 (methylthioadenosine) (Sigma Chemical Company) having the chemical formula shown below was dissolved in water, [drawing 3] the pH was adjusted to 7, and sterilization was carried out by autoclaving at 121° C. for 15 min or by filtration with membrane filters, to form a sterile solution. This sample solution mentioned above was added into a sterile basal medium (refer to Table 1) together with sterile distilled water to adjust the concentration of the sample. To this medium, S. mutans causing dental caries, Actinomyces naeslundii and A. viscosus causing dental caries and periondontitis, and B. gingivalis and Fusobacterium nucleatum causing periodontitis, each bacterium being isolated from a human oral cavity, were repectively inoculated. After incubation at 37° C. for 24 hrs, the MIC (minimal growth-inhibitoryconcentration: μg/ml) against each bacterium was determined. As a control, a 0.85% NaCl solution was used instead of the sample solution of vitamin L2. Furthermore, the effect of vitamin L2 on intestinal bacteria such as S. faecium, S. faecalis, Bifidobacterium bifidum, Lactobacillus acidophilus, and L. fermentum, isolated from the feces of healthy humans, was also determined by the same procedures.

[2] = system: B. gingivalis; assay: Antibacterial activity (MIC) against B. gingivalis; type: cell-based, Bacteroides gingivalis (isolated from a human oral cavity); settings: for MIC: Porphyromonas gingivalis
Experimental: as §1

[3] = system: F. nucleatum; assay: Antibacterial activity (MIC) against F. nucleatum; type: cell-based, Fusobacterium nucleatum (isolated from a human oral cavity); settings: Fusobacterium nucleatum, GAM broth, 37° C., 24 hrs, read-out: MIC (minimal growth-inhibitory concentration)
Experimental: as §1

[4] = system: Bif. bifidum; assay: Effect on intestinal bacteria (MIC), Bif. bifidum; type: cell-based; settings: Bifidobacterium bifidum, GAM broth, 37° C., 24 hrs, read-out: MIC (minimal growth-inhibitory concentration)
Experimental: as §1

[5] = system: S. faecalis; assay: Effect on intestinal bacteria (MIC), S. faecalis; type: cell-based, S. faecalis (isolated from the feces of healthy humans); settings: Enterococcus faecalis, Todd-Hewitt broth, 37° C., 24 hrs, read-out: MIC (minimal growth-inhibitory concentration)
Experimental: as §1

[6] = system: A. naeslundii; assay: Antibacterial activity (MIC) against A. naeslundii; type: cell-based, Actinomyces naeslundii (isolated from a human oral cavity); settings: Actinomyces naeslundii, Brain heart infusion broth, 37° C., 24 hrs, read-out: MIC (minimal growth-inhibitory concentration)
Experimental: as §1

[7] = system: A. viscosus; assay: Antibacterial activity (MIC) against A. viscosus; type: cell-based, A. viscosus (isolated from a human oral cavity); settings: Actinomyces viscosus, Brain heart infusion broth, 37° C., 24 hrs, read-out: MIC (minimal growth-inhibitory concentration)
Experimental: as §1

[8] = system: S. faecium; assay: Effect on intestinal bacteria (MIC), S. faecium; type: cell-based, S. faecium (isolated from the feces of healthy humans); settings: Enterococcus faecium, Todd-Hewitt broth, 37° C., 24 hrs, read-out: MIC (minimal growth-inhibitory concentration)
Experimental: as §1

[9] = system: L. acidophilus; assay: Effect on intestinal bacteria (MIC), L. acidophilus; type: cell-based; settings: Lactobacillus acidophilus, Rogosa broth, 37° C., 24 hrs, read-out: MIC (minimal growth-inhibitory concentration)
Experimental: as §1

[10] = system: L. fermentum; assay: Effect on intestinal bacteria (MIC), L. fermentum; type: cell-based, L. fermentum (isolated from the feces of healthy humans); settings: Limosilactobacillus fermentum, Rogosa broth, 37° C., 24 hrs, read-out: MIC (minimal growth-inhibitory concentration)
Experimental: as §1

[11] = 24 h, S. mutans, same procedures as in Example 1, read-out: MIC, S. mutans (Table 3)
[12] = 24 h, B. gingivalis, same procedures as in Example 1, read-out: MIC, B. gingivalis (Table 3)
[13] = 24 h, read-out: MIC, S. mutans (Table 3)

Nc1ncnc2c1ncn2[C@@H]1O[C@H](CCl)[C@@H](O)[C@H]1O [Material (1), 5'-deoxy-5'-chloroadenosine]
MIC [1, 11]: 250 µg/mL (≈ 875 µM) | MIC [2, 12]: 125 µg/mL (≈ 438 µM)

CNc1ncnc2c1ncn2[C@@H]1O[C@H](CO)[C@@H](O)[C@H]1O [Material (2), N-6 methyladenosine]
MIC [1, 11]: 1000 µg/mL (≈ 3560 µM) | MIC [2, 12]: 250 µg/mL (≈ 889 µM)

OC[C@H]1O[C@@H](n2cnc3c(NCc4ccccc4)ncnc32)[C@H](O)[C@@H]1O [Material (3), N-6 benzyladenosine]
MIC [1, 11]: 1000 µg/mL (≈ 2800 µM) | MIC [2, 12]: 250 µg/mL (≈ 700 µM)

Nc1nc(Cl)nc2c1ncn2[C@@H]1O[C@H](CO)[C@@H](O)[C@H]1O [Material (4), 2-chloroadenosine]
MIC [1, 11]: 1000 µg/mL (≈ 3310 µM) | MIC [2, 12]: 250 µg/mL (≈ 829 µM)

CC(C)CSC[C@H]1O[C@@H](n2cnc3c(N)ncnc32)[C@H](O)[C@@H]1O [Material (5), (5'-deoxy) isobutylthioadenosine]
MIC [1, 11]: 1500 µg/mL (≈ 4420 µM) | MIC [2, 12]: 250 µg/mL (≈ 737 µM)

Nc1ncnc2c1ncn2[C@@H]1O[C@H](CO)[C@@H](O)[C@H]1O [Material (6), adenosine]
MIC [1, 13]: 1000 µg/mL (≈ 3740 µM) | MIC, B. gingivalis (Table 3) ([2]; B. gingivalis, same procedures as in Example 1): No inhibition

Nc1ncnc2c1ncn2[C@@H]1O[C@H](CO)[C@@H](O)[C@@H]1O [Material (7), spongoadenosine]
MIC [1, 13]: 1500 µg/mL (≈ 5610 µM) | MIC ([2]; 24 h, read-out: MIC, B. gingivalis (Table 3)): 16 µg/mL (≈ 59.9 µM)

C[C@H]1O[C@@H](n2cnc3c(N)ncnc32)[C@H](O)[C@@H]1O [Material (8), 5'-deoxyadenosine]
MIC [1, 11]: 1000 µg/mL (≈ 3980 µM) | MIC [2, 12]: 125 µg/mL (≈ 498 µM)

CSC[C@H]1O[C@@H](n2cnc3c(N)ncnc32)[C@H](O)[C@@H]1O [vitamin L2, methylthioadenosine]
MIC [3]: 500 µg/mL (≈ 1680 µM) | MIC [4]: > 1000 µg/mL | MIC [5]: > 1000 µg/mL | MIC ([1]; S. mutans, Todd-Hewitt broth, 37° C., 24 hrs, read-out: MIC (minimal growth-inhibitory concentration)): 63 µg/mL (≈ 212 µM) | MIC [6]: 32 µg/mL (≈ 108 µM) | MIC [7]: 63 µg/mL (≈ 212 µM) | MIC ([2]; B. gingivalis, GAM broth, 37° C., 24 hrs, read-out: MIC (minimal growth-inhibitory concentration)): 125 µg/mL (≈ 420 µM) | MIC [8]: > 1000 µg/mL | MIC [9]: > 1000 µg/mL | MIC [10]: 1000 µg/mL (≈ 3360 µM)
